The kinase profiling compilation of Christmann-Franck et al. (2016)
Several values for one entry are separate records, joined by “and”; a condition that tells them apart may be missing. Equal values may be shown once.

Assays:
Assay in all cases: radiometric filter-binding kinase assay, Kinase HotSpot
Settings in all cases: compound 0.5 µM; ATP 10 µM
PRKCE (human) = PRKCE (human) (UniProt Q02156)
CAMK2B (human) = CAMK2B (human) (UniProt Q13554)
CDK9 CCNT1 (human) = CDK9 CCNT1 (human) (UniProt P50750+O60563)
CLK2 (human) = CLK2 (human) (UniProt P49760)
STK39 (human) = STK39 (human) (UniProt Q9UEW8)
CDK4 CCND1 (human) = CDK4 CCND1 (human) (UniProt P24385+P11802)
STK10 (human) = STK10 (human) (UniProt O94804)
ABL2 (human) = ABL2 (human) (UniProt P42684)
PHKG1 (human) = PHKG1 (human) (UniProt Q16816)
TSSK2 (human) = TSSK2 (human) (UniProt Q96PF2)
HIPK4 (human) = HIPK4 (human) (UniProt Q8NE63)
CDK4 CCND3 (human) = CDK4 CCND3 (human) (UniProt P30281+P11802)
IKBKE (human) = IKBKE (human) (UniProt Q14164)
MLTK (human) = MLTK (human) (UniProt Q9NYL2)
NTRK3 (human) = NTRK3 (human) (UniProt Q16288)
EGFR (human) = EGFR (human) (UniProt P00533)
CDK1 CCNA2 (human) = CDK1 CCNA2 (human) (UniProt P06493+P20248)
MST1R (human) = MST1R (human) (UniProt Q04912)
CAMK1 (human) = CAMK1 (human) (UniProt Q14012)
CAMKK2 (human) = CAMKK2 (human) (UniProt Q96RR4)
AKT3 (human) = AKT3 (human) (UniProt Q9Y243)
PTK2 (human) = PTK2 (human) (UniProt Q05397)
EPHA7 (human) = EPHA7 (human) (UniProt Q15375)
PRKG1 (human) = PRKG1 (human) (UniProt Q13976)
MARK1 (human) = MARK1 (human) (UniProt Q9P0L2)
ADRBK1 (human) = ADRBK1 (human) (UniProt P25098)
GRK6 (human) = GRK6 (human) (UniProt P43250)
MET (human) = MET (human) (UniProt P08581)
LIMK1 (human) = LIMK1 (human) (UniProt P53667)
PRKCB2 (human) = PRKCB2 (human) (UniProt P05771)
GRK7 (human) = GRK7 (human) (UniProt Q8WTQ7)
MAP3K14 (human) = MAP3K14 (human) (UniProt Q99558)
CSNK1G3 (human) = CSNK1G3 (human) (UniProt Q9Y6M4)
TGFBR1 (human) = TGFBR1 (human) (UniProt P36897)
NEK4 (human) = NEK4 (human) (UniProt P51957)
STK11 (human) = STK11 (human) (UniProt Q15831)
PRKD1 (human) = PRKD1 (human) (UniProt Q15139)
MAP4K5 (human) = MAP4K5 (human) (UniProt Q9Y4K4)
ACVR1 (human) = ACVR1 (human) (UniProt Q04771)
NEK7 (human) = NEK7 (human) (UniProt Q8TDX7)
CDK2 CCNE1 (human) = CDK2 CCNE1 (human) (UniProt P24941+P24864)
CAMK1D (human) = CAMK1D (human) (UniProt Q8IU85)

CAMK1 (human), sequence (Q14012 whole entry, looked up): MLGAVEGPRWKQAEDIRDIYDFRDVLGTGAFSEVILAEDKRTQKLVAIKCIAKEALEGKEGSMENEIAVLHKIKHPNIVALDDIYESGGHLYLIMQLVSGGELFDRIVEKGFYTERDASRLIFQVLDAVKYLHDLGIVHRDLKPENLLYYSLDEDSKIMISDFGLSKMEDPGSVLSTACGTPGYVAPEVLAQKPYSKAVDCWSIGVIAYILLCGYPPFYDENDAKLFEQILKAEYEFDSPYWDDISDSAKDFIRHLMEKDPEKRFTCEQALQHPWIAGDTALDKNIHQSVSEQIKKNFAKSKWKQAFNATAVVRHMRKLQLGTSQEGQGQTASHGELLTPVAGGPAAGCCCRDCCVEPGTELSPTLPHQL
TSSK2 (human), sequence (Q96PF2 whole entry, looked up): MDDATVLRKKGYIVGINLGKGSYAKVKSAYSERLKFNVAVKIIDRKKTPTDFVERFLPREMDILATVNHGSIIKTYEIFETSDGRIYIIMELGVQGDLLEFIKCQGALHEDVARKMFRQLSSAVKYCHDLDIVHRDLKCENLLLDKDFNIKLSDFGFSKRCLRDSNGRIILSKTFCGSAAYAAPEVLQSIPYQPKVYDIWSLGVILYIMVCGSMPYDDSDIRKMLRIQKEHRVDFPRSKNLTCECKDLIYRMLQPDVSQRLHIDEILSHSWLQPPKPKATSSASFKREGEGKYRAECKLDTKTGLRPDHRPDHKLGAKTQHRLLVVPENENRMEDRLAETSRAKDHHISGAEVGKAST
EPHA7 (human), sequence (Q15375 whole entry, looked up): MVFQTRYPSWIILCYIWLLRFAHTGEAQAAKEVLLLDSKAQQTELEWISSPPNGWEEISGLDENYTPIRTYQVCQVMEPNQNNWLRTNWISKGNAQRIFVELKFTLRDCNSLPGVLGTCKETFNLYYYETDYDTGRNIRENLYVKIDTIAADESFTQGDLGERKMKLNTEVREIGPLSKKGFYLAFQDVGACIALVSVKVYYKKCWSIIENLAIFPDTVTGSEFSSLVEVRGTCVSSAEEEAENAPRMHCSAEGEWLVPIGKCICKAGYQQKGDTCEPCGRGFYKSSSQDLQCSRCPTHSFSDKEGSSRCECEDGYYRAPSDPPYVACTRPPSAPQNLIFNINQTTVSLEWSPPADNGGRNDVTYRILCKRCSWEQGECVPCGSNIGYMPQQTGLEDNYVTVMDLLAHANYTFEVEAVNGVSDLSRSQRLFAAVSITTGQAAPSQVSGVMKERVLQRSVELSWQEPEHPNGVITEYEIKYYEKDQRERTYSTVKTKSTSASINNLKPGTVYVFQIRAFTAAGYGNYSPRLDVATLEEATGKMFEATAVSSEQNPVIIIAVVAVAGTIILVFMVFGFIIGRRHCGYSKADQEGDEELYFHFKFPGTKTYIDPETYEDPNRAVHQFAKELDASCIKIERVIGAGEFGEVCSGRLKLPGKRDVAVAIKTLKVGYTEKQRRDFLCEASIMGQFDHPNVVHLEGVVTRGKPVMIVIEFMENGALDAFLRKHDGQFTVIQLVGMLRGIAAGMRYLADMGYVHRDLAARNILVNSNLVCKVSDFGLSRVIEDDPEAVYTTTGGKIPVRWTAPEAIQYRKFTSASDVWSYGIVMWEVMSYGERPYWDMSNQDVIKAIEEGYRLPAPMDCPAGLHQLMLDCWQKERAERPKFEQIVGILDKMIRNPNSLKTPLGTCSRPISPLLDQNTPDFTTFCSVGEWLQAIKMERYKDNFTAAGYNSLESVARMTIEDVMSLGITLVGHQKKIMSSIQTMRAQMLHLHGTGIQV
ABL2 (human), sequence (P42684 whole entry, looked up): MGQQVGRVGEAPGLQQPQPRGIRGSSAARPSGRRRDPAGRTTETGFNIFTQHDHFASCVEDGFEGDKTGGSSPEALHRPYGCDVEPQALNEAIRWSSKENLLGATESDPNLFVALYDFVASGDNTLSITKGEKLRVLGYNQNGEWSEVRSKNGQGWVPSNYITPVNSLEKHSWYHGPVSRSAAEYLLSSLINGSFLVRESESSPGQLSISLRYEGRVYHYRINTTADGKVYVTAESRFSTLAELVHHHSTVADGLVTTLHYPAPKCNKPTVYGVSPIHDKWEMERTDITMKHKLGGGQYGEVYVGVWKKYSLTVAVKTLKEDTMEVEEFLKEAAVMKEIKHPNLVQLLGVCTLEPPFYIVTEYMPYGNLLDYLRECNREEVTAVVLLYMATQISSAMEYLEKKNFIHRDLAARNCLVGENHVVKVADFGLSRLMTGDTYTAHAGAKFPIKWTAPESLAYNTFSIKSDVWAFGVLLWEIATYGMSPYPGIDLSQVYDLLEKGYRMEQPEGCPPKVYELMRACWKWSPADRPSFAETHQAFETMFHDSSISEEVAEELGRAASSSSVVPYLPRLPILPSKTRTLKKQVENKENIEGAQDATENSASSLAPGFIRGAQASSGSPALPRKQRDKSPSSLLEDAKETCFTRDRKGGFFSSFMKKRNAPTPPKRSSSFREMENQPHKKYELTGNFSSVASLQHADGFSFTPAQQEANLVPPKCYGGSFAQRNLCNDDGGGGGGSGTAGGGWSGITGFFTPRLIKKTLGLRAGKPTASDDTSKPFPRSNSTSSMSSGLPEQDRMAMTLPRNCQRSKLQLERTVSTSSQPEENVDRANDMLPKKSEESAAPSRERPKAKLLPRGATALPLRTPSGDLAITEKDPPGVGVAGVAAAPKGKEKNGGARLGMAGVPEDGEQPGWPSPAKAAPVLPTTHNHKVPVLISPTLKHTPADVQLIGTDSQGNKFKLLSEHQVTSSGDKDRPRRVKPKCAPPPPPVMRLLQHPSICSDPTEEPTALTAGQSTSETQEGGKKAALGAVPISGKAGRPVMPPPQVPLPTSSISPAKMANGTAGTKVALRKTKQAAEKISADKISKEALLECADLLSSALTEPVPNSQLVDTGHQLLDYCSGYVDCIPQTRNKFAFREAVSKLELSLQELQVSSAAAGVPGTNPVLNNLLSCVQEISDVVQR
ACVR1 (human), sequence (Q04771 whole entry, looked up): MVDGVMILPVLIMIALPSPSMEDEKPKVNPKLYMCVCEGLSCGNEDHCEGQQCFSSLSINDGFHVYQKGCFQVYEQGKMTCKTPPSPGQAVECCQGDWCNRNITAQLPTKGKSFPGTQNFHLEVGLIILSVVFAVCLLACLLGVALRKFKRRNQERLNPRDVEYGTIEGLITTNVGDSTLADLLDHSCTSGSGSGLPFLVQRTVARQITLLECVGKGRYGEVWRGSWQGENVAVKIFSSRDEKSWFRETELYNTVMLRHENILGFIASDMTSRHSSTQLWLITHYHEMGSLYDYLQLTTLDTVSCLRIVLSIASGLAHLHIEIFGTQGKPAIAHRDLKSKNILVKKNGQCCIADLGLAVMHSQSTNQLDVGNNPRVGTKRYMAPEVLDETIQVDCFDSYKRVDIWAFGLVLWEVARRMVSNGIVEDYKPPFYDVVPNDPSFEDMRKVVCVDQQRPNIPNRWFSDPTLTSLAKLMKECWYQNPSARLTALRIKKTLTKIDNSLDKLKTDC
PRKCB2 (human), sequence (P05771 whole entry, looked up): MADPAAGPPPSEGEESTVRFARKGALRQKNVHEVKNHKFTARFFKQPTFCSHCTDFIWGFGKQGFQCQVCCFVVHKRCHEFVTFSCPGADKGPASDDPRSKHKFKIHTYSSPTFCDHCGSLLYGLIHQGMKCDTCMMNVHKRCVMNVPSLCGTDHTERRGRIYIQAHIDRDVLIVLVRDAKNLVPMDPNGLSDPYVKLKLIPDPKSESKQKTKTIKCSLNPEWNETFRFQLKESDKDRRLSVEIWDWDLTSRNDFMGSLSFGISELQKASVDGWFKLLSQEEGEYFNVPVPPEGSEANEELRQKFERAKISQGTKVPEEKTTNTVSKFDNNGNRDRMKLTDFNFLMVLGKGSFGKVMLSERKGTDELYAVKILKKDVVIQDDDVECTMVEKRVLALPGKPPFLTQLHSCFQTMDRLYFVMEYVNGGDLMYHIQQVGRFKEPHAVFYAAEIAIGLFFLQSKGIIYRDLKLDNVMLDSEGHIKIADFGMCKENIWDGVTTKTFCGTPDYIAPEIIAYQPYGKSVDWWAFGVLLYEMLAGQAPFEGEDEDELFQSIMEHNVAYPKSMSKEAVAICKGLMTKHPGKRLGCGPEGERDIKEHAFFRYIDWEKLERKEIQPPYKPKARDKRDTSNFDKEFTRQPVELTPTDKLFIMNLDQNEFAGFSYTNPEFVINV
AKT3 (human), sequence (Q9Y243 whole entry, looked up): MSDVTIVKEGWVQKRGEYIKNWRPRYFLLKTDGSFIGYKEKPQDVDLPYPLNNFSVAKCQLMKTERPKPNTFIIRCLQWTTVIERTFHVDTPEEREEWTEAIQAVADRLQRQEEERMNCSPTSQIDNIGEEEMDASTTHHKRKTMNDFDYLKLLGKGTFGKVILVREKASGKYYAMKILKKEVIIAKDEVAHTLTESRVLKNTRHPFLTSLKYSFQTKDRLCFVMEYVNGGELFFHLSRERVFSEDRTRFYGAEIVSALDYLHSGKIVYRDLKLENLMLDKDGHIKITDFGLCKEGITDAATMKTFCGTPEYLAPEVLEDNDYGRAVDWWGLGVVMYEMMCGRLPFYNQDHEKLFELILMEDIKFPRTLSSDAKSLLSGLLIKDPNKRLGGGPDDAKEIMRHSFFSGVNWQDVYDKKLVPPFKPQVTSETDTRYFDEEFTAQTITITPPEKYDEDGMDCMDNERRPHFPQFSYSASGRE
CSNK1G3 (human), sequence (Q9Y6M4 whole entry, looked up): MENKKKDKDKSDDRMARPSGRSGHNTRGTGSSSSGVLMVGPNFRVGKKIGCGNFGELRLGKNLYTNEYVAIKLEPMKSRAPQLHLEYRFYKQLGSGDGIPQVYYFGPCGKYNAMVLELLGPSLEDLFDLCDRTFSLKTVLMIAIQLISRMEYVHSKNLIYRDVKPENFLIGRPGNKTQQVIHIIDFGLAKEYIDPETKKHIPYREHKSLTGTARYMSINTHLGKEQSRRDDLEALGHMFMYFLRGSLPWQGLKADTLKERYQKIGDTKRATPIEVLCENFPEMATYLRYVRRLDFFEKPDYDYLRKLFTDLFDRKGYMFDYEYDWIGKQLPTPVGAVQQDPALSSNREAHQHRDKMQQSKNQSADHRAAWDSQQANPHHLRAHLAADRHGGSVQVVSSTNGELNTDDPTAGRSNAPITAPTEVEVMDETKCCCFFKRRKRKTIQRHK

O=C1Nc2ccccc2/C1=C1\Nc2ccccc2\C1=N/O
residual activity (PRKCE (human)): 96.5% | residual activity (CAMK2B (human)): 87.5% | residual activity (CDK9 CCNT1 (human)): 75.2% | residual activity (CLK2 (human)): 92.5% | residual activity (STK39 (human)): 90.4% | residual activity (CDK4 CCND1 (human)): 70.9% | residual activity (STK10 (human)): 74% | residual activity (ABL2 (human)): 60.3% | residual activity (PHKG1 (human)): 31.5% | residual activity (TSSK2 (human)): 97.7% | residual activity (HIPK4 (human)): 102% | residual activity (CDK4 CCND3 (human)): 98.9% | residual activity (IKBKE (human)): 75.1% | residual activity (MLTK (human)): 89.6% | residual activity (NTRK3 (human)): 2.17% | residual activity (EGFR (human)): 97.1% | residual activity (CDK1 CCNA2 (human)): 88.4% | residual activity (MST1R (human)): 103% | residual activity (CAMK1 (human)): 83.7% | residual activity (CAMKK2 (human)): 66.8% | residual activity (AKT3 (human)): 98.8% | residual activity (PTK2 (human)): 65.8% | residual activity (EPHA7 (human)): 89.3% | residual activity (PRKG1 (human)): 86% and 90.1% | residual activity (MARK1 (human)): 74.8% | residual activity (ADRBK1 (human)): 89.5% | residual activity (GRK6 (human)): 89.4% | residual activity (MET (human)): 110% | residual activity (LIMK1 (human)): 65.9% | residual activity (PRKCB2 (human)): 101% | residual activity (GRK7 (human)): 84.4% | residual activity (MAP3K14 (human)): 88.7% | residual activity (CSNK1G3 (human)): 81.9% | residual activity (TGFBR1 (human)): 98.9% | residual activity (NEK4 (human)): 95% | residual activity (STK11 (human)): 25.6% | residual activity (PRKD1 (human)): 85% | residual activity (MAP4K5 (human)): 37.8% | residual activity (ACVR1 (human)): 112% | residual activity (NEK7 (human)): 106% | residual activity (CDK2 CCNE1 (human)): 31.3% | residual activity (CAMK1D (human)): 92.3%

COc1ccc(OC)c2c(=S)c3ccccc3[nH]c12
residual activity (PRKCE (human)): 93.3% | residual activity (CAMK2B (human)): 104% | residual activity (CDK9 CCNT1 (human)): 98.8% | residual activity (CLK2 (human)): 81.2% | residual activity (STK39 (human)): 94.4% | residual activity (CDK4 CCND1 (human)): 93.5% | residual activity (STK10 (human)): 93.6% | residual activity (ABL2 (human)): 92.5% | residual activity (PHKG1 (human)): 83% | residual activity (TSSK2 (human)): 108% | residual activity (HIPK4 (human)): 97.3% | residual activity (CDK4 CCND3 (human)): 95.5% | residual activity (IKBKE (human)): 104% | residual activity (MLTK (human)): 94% | residual activity (NTRK3 (human)): 93.6% | residual activity (EGFR (human)): 91% | residual activity (CDK1 CCNA2 (human)): 96.2% | residual activity (MST1R (human)): 87.9% | residual activity (CAMK1 (human)): 75.2% | residual activity (CAMKK2 (human)): 108% | residual activity (AKT3 (human)): 92% | residual activity (PTK2 (human)): 106% | residual activity (EPHA7 (human)): 89.7% | residual activity (PRKG1 (human)): 101% and 94.4% | residual activity (MARK1 (human)): 88.3% | residual activity (ADRBK1 (human)): 92.5% | residual activity (GRK6 (human)): 97.2% | residual activity (MET (human)): 99.2% | residual activity (LIMK1 (human)): 108% | residual activity (PRKCB2 (human)): 106% | residual activity (GRK7 (human)): 102% | residual activity (MAP3K14 (human)): 96% | residual activity (CSNK1G3 (human)): 86.2% | residual activity (TGFBR1 (human)): 99.1% | residual activity (NEK4 (human)): 87.7% | residual activity (STK11 (human)): 84.4% | residual activity (PRKD1 (human)): 99.8% | residual activity (MAP4K5 (human)): 95.2% | residual activity (ACVR1 (human)): 99.2% | residual activity (NEK7 (human)): 97.2% | residual activity (CDK2 CCNE1 (human)): 77.9% | residual activity (CAMK1D (human)): 104%

O=C(O)/C=C/c1cc(Br)c(Br)c(Br)c1Br
residual activity (PRKCE (human)): 88.6% | residual activity (CAMK2B (human)): 56.1% | residual activity (CDK9 CCNT1 (human)): 58.9% | residual activity (CLK2 (human)): 85% | residual activity (STK39 (human)): 97.9% | residual activity (CDK4 CCND1 (human)): 89.3% | residual activity (STK10 (human)): 85.8% | residual activity (ABL2 (human)): 88.7% | residual activity (PHKG1 (human)): 87.6% | residual activity (TSSK2 (human)): 98.1% | residual activity (HIPK4 (human)): 102% | residual activity (CDK4 CCND3 (human)): 97.9% | residual activity (IKBKE (human)): 96.8% | residual activity (MLTK (human)): 89.4% | residual activity (NTRK3 (human)): 90.6% | residual activity (EGFR (human)): 98.4% | residual activity (CDK1 CCNA2 (human)): 88.6% | residual activity (MST1R (human)): 87.1% | residual activity (CAMK1 (human)): 105% | residual activity (CAMKK2 (human)): 79.6% | residual activity (AKT3 (human)): 92.7% | residual activity (PTK2 (human)): 94% | residual activity (EPHA7 (human)): 94.1% | residual activity (PRKG1 (human)): 78.9% and 89% | residual activity (MARK1 (human)): 93.7% | residual activity (ADRBK1 (human)): 97.9% | residual activity (GRK6 (human)): 97.2% | residual activity (MET (human)): 84.5% | residual activity (LIMK1 (human)): 101% | residual activity (PRKCB2 (human)): 84.7% | residual activity (GRK7 (human)): 105% | residual activity (MAP3K14 (human)): 100% | residual activity (CSNK1G3 (human)): 92.1% | residual activity (TGFBR1 (human)): 90.8% | residual activity (NEK4 (human)): 54.6% | residual activity (STK11 (human)): 42.8% | residual activity (PRKD1 (human)): 88.9% | residual activity (MAP4K5 (human)): 80.3% | residual activity (ACVR1 (human)): 92.1% | residual activity (NEK7 (human)): 98% | residual activity (CDK2 CCNE1 (human)): 89.4% | residual activity (CAMK1D (human)): 98.1%
